Test system: SARS-CoV-2
Experiment: microbe, parasite or virus in culture
Type: cell-based
Conditions: Severe acute respiratory syndrome coronavirus 2, VeroE6/TMPRSS2; read-out: EC50 against all tested SARS-CoV-2 variants

## Cn1cnc(Cn2c(=O)[nH]/c(=N\c3cc4cn(C)nc4cc3Cl)n(Cc3cc(F)c(F)cc3F)c2=O)n1 [Compound 3, (6E)-6-[(6-Chloro-2-methyl-2H-indazol-5-yl)imino]-3-[(1-methyl-1H-1,2,4-triazol-3-yl)methyl]-1-(2,4,5-trifluorobenzyl)-1,3,5-triazinane-2,4-dione]
  EC50: 290 to 500 nM

From PMC8982737, “Discovery of S-217622, a Noncovalent Oral SARS-CoV-2 3CL Protease Inhibitor Clinical Candidate for Treating COVID-19” (Journal of Medicinal Chemistry, 2022)
